Where “and” joins values, the source holds several entries; their conditions need not be identical. Equal entries are not always repeated.

This is an account of results in PMC4710522, “A Novel Triazolopyridine-Based Spleen Tyrosine Kinase Inhibitor That Arrests Joint Inflammation” (PLoS ONE, 2016).

In one data set the target is T1, Cyp2C9 (Homo sapiens, UniProt P11712).
T1 construct: purchased Life Technologies (Vivid Assay kits)
Kind of data set: Vivid cytochrome P450 inhibition assay. Format: in vitro ADME. The conditions noted are these: data not shown. The protocol:
(§1) Syk kinase mode of inhibition studies, including parameters described in Fig 1, were conducted on the LC3000 platform by Caliper Life Sciences (Hopkinton, MA) according to standard protocols developed by the supplier. […] Non-kinase enzyme assays and GPCR, ion channel, and transporter binding assays were run by CEREP (France). Non-GLP manual patch clamp hERG assays were run by ChanTest (Cleveland, Ohio). Vivid® Assay kits (Life Technologies) were used to measure the cytochrome P450 inhibition of the compound against CYP3A, CYP2C9, CYP2C19, CYP2D6, and CYP1A2, as described.

The target in the next data set is T2, Cyp2C19 (Homo sapiens, UniProt P33261).
T2 construct: purchased Life Technologies (Vivid Assay kits)
The data set is described as follows: Vivid cytochrome P450 inhibition assay. The conditions noted are these: data not shown. Format: in vitro ADME. The procedure:
as §1

In a further data set the target is T3, Cyp1A2 (Homo sapiens, UniProt P05177).
T3 construct: purchased Life Technologies (Vivid Assay kits)
Kind of data set: Vivid cytochrome P450 inhibition assay. Format: in vitro ADME. The conditions noted are these: data not shown. The procedure: as §1

The target in a further data set is T4, Cyp2D6 (Homo sapiens, UniProt P10635).
T4 construct: purchased Life Technologies (Vivid Assay kits)
Kind of data set: Vivid cytochrome P450 inhibition assay. Format: in vitro ADME. To be noted: data not shown. The protocol: as §1

The target of another data set is T5, Cyp3A4 (Homo sapiens, UniProt P08684).
T5 construct: purchased Life Technologies (Vivid Assay kits)
T5 sequence (P08684 whole entry): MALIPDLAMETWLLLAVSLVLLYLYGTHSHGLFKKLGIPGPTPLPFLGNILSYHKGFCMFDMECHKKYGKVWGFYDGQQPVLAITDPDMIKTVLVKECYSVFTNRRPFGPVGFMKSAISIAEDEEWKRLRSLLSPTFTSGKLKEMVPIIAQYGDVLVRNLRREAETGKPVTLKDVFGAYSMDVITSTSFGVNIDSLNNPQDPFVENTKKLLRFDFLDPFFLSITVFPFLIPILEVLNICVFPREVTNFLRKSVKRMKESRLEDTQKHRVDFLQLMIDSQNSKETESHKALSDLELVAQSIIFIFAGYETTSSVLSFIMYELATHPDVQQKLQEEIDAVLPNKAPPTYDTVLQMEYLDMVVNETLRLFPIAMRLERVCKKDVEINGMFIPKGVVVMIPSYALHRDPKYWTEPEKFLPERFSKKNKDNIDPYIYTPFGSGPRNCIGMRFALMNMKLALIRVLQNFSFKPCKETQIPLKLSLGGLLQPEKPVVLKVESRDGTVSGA
Kind of data set: Vivid cytochrome P450 inhibition assay. The conditions noted are these: data not shown. The class given is in vitro ADME. The procedure:
as §1

In the next data set the target is T6, ErbB4_h (Homo sapiens, UniProt Q15303).
T6 construct: purchased Life Technologies (Invitrogen) SelectScreen, Z'-LYTE / Adapta
Kind of data set: SelectScreen kinase assay. Format: biochemical. To be noted: KM ATP, read-out: % control. In outline:
(§2)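 ATP level varied by condition (KM for the specific enzyme, 10 µM or 100 µM), while compound stayed at 3 µM; % control calculated against uninhibited DMSO wells.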

The target in the next data set is T7, PKD3_h (Homo sapiens, UniProt O94806).
T7 construct: purchased Life Technologies (Invitrogen) SelectScreen, Z'-LYTE / Adapta
The data set is described as follows: SelectScreen kinase assay. The class given is biochemical. The conditions noted are these: KM ATP, read-out: % control. Put shortly:
as §2

Another data set addresses T8, MAPK3_h (Homo sapiens, UniProt P27361).
T8 construct: purchased Life Technologies (Invitrogen) SelectScreen, Z'-LYTE / Adapta
Kind of data set: SelectScreen kinase assay. Format: biochemical. To be noted: KM ATP, read-out: % control. Put shortly: as §2

The target in the next data set is T9, Ret_Y791F_h (Homo sapiens, UniProt P07949, Y791F).
T9 construct: purchased Life Technologies (Invitrogen) SelectScreen, Z'-LYTE / Adapta
T9 sequence (P07949 29-1114 Y791F): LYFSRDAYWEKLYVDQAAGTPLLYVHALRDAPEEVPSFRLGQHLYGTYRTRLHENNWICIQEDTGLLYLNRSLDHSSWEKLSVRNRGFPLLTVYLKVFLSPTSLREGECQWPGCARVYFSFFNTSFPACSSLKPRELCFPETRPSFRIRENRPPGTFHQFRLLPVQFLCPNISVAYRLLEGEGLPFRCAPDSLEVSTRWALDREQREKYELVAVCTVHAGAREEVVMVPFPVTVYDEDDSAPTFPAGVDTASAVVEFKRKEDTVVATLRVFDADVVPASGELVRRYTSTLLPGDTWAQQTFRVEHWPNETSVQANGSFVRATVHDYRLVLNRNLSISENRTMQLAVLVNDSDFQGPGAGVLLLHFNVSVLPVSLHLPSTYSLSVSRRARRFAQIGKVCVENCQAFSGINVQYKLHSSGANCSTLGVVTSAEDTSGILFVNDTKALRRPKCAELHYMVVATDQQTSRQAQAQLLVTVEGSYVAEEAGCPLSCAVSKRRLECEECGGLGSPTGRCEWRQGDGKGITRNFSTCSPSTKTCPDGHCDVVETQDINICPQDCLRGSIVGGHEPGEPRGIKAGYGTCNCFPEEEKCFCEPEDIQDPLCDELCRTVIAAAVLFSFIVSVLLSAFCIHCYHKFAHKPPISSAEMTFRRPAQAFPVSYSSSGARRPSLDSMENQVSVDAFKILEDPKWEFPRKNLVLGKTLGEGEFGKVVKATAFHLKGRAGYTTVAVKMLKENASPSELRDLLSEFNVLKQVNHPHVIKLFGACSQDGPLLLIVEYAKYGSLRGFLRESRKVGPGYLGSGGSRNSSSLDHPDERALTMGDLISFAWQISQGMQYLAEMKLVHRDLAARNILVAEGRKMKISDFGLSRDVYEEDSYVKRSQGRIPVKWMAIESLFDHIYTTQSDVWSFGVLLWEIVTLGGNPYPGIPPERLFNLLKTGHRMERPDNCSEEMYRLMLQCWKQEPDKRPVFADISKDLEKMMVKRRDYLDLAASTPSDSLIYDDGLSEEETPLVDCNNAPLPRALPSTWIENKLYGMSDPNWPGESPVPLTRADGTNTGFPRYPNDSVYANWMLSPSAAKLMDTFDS
Kind of data set: SelectScreen kinase assay. The class given is biochemical. To be noted: KM ATP, read-out: % control. Put shortly: as §2

In a further data set the target is T10, ALK_h (Homo sapiens, UniProt Q9UM73).
T10 construct: purchased Life Technologies (Invitrogen) SelectScreen, Z'-LYTE / Adapta
Kind of data set: SelectScreen kinase assay. The class given is biochemical. The conditions noted are these: KM ATP, read-out: % control. Put shortly:
as §2

For a further data set, the target named is JAK1_h (Homo sapiens, UniProt P23458). The data set is described as follows: SelectScreen kinase assay. Format: biochemical. In outline: as §2
Sequence of JAK1_h (P23458 whole entry): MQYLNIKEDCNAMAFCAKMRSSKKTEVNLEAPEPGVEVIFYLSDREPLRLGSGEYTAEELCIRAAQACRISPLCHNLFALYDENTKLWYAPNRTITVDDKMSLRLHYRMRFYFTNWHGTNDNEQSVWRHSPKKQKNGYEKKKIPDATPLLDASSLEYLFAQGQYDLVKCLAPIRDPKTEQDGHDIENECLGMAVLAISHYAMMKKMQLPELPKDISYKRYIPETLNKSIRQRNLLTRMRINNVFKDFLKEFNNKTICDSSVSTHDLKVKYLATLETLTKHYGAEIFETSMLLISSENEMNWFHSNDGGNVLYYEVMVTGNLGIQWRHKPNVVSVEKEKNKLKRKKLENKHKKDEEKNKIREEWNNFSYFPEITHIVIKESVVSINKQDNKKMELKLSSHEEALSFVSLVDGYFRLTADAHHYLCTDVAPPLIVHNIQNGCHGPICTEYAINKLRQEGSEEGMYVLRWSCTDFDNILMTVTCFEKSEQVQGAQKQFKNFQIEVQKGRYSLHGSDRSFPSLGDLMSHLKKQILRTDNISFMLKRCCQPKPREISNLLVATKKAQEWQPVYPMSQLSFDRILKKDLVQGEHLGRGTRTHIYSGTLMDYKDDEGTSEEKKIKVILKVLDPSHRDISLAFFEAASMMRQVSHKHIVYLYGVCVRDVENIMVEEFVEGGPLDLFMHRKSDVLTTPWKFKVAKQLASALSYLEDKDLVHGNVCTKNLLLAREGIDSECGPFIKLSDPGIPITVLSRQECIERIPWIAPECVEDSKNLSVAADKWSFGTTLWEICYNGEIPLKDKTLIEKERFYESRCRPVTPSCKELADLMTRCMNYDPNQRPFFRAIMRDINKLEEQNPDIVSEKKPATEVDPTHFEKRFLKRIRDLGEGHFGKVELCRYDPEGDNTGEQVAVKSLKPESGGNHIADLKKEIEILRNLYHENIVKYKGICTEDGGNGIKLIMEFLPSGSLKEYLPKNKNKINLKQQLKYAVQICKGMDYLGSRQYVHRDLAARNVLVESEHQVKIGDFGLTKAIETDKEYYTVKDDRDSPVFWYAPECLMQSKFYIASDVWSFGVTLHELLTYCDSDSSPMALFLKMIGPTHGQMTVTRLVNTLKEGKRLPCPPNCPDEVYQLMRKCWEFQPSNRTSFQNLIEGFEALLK
The target in another data set is T11, mTOR_h (Homo sapiens, UniProt P42345).
T11 construct: purchased Life Technologies (Invitrogen) SelectScreen, Z'-LYTE / Adapta
Kind of data set: SelectScreen kinase assay. The class given is biochemical. To be noted: KM ATP, read-out: % control. Put shortly:
as §2

Another data set deals with T12, IKK-beta_h (Homo sapiens, UniProt O14920).
T12 construct: purchased Life Technologies (Invitrogen) SelectScreen, Z'-LYTE / Adapta
The data set is described as follows: SelectScreen kinase assay. The class given is biochemical. To be noted: KM ATP, read-out: % control. Put shortly: as §2

Another data set concerns the target T13, PDGFR-beta_h (Homo sapiens, UniProt P09619).
T13 construct: purchased Life Technologies (Invitrogen) SelectScreen, Z'-LYTE / Adapta
Kind of data set: SelectScreen kinase assay. The class given is biochemical. The conditions noted are these: KM ATP, read-out: % control. Put shortly: as §2

The target of a further data set is T14, p38-beta_h (Homo sapiens, UniProt Q15759).
T14 construct: purchased Life Technologies (Invitrogen) SelectScreen, Z'-LYTE / Adapta
Kind of data set: SelectScreen kinase assay. To be noted: KM ATP, read-out: % control. Format: biochemical. In outline:
as §2

The target of another data set is T15, PDE5 (Homo sapiens, UniProt O76074).
T15 construct: purchased CEREP (contract assay)
The data set is described as follows: non-kinase enzyme panel (CEREP). Format: biochemical. The procedure:
as §1

Another data set concerns the target T16, PDE2A (Homo sapiens, UniProt O00408).
T16 construct: purchased CEREP (contract assay)
Kind of data set: non-kinase enzyme panel (CEREP). Format: biochemical. The procedure: as §1

A further data set deals with T17, 5-lipoxygenase (Homo sapiens, UniProt P09917).
T17 construct: CEREP (contract assay)
Kind of data set: non-kinase enzyme panel (CEREP). The class given is biochemical. The protocol:
as §1

In the next data set the target is T18, SPHK1_h (Homo sapiens, UniProt Q9NYA1).
T18 construct: purchased Life Technologies (Invitrogen) SelectScreen, Z'-LYTE / Adapta
The data set is described as follows: SelectScreen kinase assay. Format: biochemical. The conditions noted are these: KM ATP, read-out: % control. The procedure:
as §1
(§3) Kinase activity was measured using either the Z’-Lyte® or the Adapta® protocols as part of the SelectScreen™ profiling service offered at Life Technologies (Grand Island, NY). For the single point measurements (Part A), CC-509 was kept constant at 3 µM while ATP concentrations [ATP] used were at the KM for ATP (KM ATP) for that specific enyzme, at 10 or 100 µM ATP (10 ATP or 100 ATP, respectively), as indicated. Values expressed as percent control (% control) relative to DMSO-only wells (uninhibited, 100%).

In a further data set the target is T19, PIK3C3_h (Homo sapiens, UniProt Q8NEB9).
T19 construct: purchased Life Technologies (Invitrogen) SelectScreen, Z'-LYTE / Adapta
The data set is described as follows: SelectScreen kinase assay. To be noted: KM ATP, read-out: % control. Format: biochemical. The protocol:
as §1, §3

In a further data set the target is T20, PI3_Kinase-delta_h (Homo sapiens, UniProt O00329).
T20 construct: purchased Life Technologies (Invitrogen) SelectScreen, Z'-LYTE / Adapta
The data set is described as follows: SelectScreen kinase assay. Format: biochemical. The conditions noted are these: KM ATP, read-out: % control. The protocol: as §1, §3

The target of the next data set is T21, PI4K-alpha_h (Homo sapiens, UniProt P42356).
T21 construct: purchased Life Technologies (Invitrogen) SelectScreen, Z'-LYTE / Adapta
The data set is described as follows: SelectScreen kinase assay. Format: biochemical. To be noted: 10 µM ATP, read-out: % control. The procedure:
as §1, §3

A further data set concerns the target T22, EphA3_h (Homo sapiens, UniProt P29320).
T22 construct: purchased Life Technologies (Invitrogen) SelectScreen, Z'-LYTE / Adapta
Kind of data set: SelectScreen kinase assay. To be noted: KM ATP, read-out: % control. Format: biochemical. The procedure:
as §1, §3

For a further data set, the target named is T23, PI3K-C2 alpha_h (Homo sapiens, UniProt O00443).
T23 construct: purchased Life Technologies (Invitrogen) SelectScreen, Z'-LYTE / Adapta
Kind of data set: SelectScreen kinase assay. Format: biochemical. To be noted: KM ATP, read-out: % control. The procedure: as §1, §3

The target of another data set is T24, PI3_Kinase-gamma_h (Homo sapiens, UniProt P48736).
T24 construct: purchased Life Technologies (Invitrogen) SelectScreen, Z'-LYTE / Adapta
The data set is described as follows: SelectScreen kinase assay. The class given is biochemical. The conditions noted are these: KM ATP, read-out: % control. The procedure: as §1, §3

The next data set has as its target T25, SPHK2_h (Homo sapiens, UniProt Q9NRA0).
T25 construct: purchased Life Technologies (Invitrogen) SelectScreen, Z'-LYTE / Adapta
The data set is described as follows: SelectScreen kinase assay. The conditions noted are these: 10 µM ATP, read-out: % control. Format: biochemical. The procedure:
as §1, §3

The target in another data set is T26, PI3K-C2 beta_h (Homo sapiens, UniProt O00750).
T26 construct: purchased Life Technologies (Invitrogen) SelectScreen, Z'-LYTE / Adapta
T26 sequence (O00750 whole entry): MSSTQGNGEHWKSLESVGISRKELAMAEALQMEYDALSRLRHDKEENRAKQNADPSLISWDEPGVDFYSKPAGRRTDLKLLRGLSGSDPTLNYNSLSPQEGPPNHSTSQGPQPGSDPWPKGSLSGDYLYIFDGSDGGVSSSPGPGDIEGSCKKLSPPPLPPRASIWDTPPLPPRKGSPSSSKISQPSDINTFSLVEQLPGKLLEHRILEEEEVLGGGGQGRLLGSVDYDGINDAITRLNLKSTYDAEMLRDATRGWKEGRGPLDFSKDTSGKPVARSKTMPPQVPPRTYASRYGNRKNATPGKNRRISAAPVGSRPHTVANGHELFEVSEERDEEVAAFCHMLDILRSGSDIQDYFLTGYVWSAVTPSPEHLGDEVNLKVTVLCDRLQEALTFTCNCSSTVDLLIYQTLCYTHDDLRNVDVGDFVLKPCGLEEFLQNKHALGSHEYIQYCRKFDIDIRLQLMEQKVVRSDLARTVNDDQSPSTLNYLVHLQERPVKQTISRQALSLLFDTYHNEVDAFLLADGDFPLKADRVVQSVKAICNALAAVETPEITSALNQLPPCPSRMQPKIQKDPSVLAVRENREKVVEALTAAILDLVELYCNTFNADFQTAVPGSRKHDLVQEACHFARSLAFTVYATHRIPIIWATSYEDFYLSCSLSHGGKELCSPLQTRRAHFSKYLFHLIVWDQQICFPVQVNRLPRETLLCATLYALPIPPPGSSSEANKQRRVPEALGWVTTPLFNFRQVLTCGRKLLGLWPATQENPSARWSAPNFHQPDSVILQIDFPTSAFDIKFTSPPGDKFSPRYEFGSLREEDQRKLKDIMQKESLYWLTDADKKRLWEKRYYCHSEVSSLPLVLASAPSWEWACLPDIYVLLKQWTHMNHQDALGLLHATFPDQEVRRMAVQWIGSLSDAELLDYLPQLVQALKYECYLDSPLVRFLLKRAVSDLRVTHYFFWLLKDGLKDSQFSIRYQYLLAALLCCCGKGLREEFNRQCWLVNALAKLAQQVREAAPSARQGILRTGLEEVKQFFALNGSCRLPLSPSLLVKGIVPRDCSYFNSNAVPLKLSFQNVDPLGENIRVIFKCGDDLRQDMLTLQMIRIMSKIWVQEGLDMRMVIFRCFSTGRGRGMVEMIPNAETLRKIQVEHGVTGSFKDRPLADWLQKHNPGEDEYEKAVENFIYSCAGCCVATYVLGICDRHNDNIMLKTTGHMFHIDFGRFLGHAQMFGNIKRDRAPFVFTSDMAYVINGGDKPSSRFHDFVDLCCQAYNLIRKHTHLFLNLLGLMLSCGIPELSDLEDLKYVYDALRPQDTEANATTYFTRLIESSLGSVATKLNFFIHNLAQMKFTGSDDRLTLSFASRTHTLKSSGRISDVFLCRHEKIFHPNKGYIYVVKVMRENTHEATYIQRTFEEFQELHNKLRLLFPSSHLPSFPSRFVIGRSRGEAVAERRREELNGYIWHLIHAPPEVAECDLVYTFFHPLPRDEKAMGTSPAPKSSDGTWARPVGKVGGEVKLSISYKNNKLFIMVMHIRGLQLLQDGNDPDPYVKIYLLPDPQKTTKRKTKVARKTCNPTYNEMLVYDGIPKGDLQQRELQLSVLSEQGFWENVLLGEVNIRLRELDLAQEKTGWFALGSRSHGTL
Kind of data set: SelectScreen kinase assay. The class given is biochemical. To be noted: 10 µM ATP, read-out: % control. The procedure:
as §1, §3

The target of a further data set is T27, PI3_Kinase-alpha_h (Homo sapiens, UniProt P42336).
T27 construct: purchased Life Technologies (Invitrogen) SelectScreen, Z'-LYTE / Adapta
The data set is described as follows: SelectScreen kinase assay. The conditions noted are these: KM ATP, read-out: % control. Format: biochemical. The protocol: as §1, §3

The next data set deals with T28, PI4K-beta_h (Homo sapiens, UniProt Q9UBF8).
T28 construct: purchased Life Technologies (Invitrogen) SelectScreen, Z'-LYTE / Adapta
Kind of data set: SelectScreen kinase assay. The class given is biochemical. To be noted: KM ATP, read-out: % control. The procedure: as §1, §3

For data set [1] the following is noted: male rats; cited from earlier work.

T1 sequence (P11712 whole entry): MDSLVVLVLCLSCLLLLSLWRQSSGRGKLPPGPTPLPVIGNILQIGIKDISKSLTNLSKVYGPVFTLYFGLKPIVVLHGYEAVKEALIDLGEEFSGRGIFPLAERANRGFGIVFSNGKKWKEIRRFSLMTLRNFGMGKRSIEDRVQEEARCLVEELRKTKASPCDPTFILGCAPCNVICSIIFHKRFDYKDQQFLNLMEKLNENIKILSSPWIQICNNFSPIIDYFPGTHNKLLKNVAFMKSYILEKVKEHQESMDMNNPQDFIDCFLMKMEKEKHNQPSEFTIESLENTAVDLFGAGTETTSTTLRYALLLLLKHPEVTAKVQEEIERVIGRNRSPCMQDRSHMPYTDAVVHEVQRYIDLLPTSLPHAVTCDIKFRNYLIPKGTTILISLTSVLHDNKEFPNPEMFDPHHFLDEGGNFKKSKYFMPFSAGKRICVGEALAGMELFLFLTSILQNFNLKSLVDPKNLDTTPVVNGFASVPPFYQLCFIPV

What is called IC50 is the concentration needed to halve the response being measured. High values mean a need for much substance, low ones inhibition by little substance. In general, inhibition refers to the drop in the measured response relative to a control, in per cent. A high value points to a response far below the control. As for `c1cc(CC2CCOCC2)n2nc(Nc3ccc4c(NC5CCOCC5)n[nH]c4c3)nc2c1` [CC-509, [3-(2H-3,4,5,6-tetrahydropyran-4-ylamino)(1H-indazol-6-yl)][5-(2H-3,4,5,6-tetrahydropyran-4-ylmethyl)(2H-1,2,4-triazolo[1,5-a]pyridin-2-yl)]amine], the “inhibition of Cyp450 activity” value at Cyp2C9, at Cyp2C19, against Cyp1A2, on Cyp2D6 and at Cyp3A4 was “did not inhibit” each time. Further, the remaining activity at 3 µM at ErbB4_h came out at 91%; on PKD3_h, 37%; on MAPK3_h, 90%; on Ret_Y791F_h, 18%; on ALK_h, 45%; on JAK1_h (3 µM, KM ATP, read-out: % control) it was 0%. The remaining activity at 3 µM was found to be 92% at mTOR_h; 99% on IKK-beta_h; 43% on PDGFR-beta_h; 84% on p38-beta_h; 96% at SPHK1_h; 79% on PIK3C3_h. Further, the remaining activity at 3 µM at PI3_Kinase-delta_h came to 58%; at PI4K-alpha_h it was 120%; on EphA3_h it was 98%; at PI3K-C2 alpha_h, 95%; at PI3_Kinase-gamma_h it was 61%; on SPHK2_h, 105%. Also, the remaining activity at 3 µM on PI3K-C2 beta_h is 98%; at PI3_Kinase-alpha_h it was 81%; at PI4K-beta_h, 77%. Further, the concentration for half-maximal inhibition (IC50) at JAK1_h (10-point dose-response, commercial vendor) is 40 nM and 44 nM. The figures for the inhibition at 10 µM against PDE5, against PDE2A and against 5-lipoxygenase were 90%, 89% and 73%, respectively.
`COc1cc(Nc2ncc(F)c(Nc3ccc4c(n3)NC(=O)C(C)(C)O4)n2)cc(OC)c1OC` [R406, reference compound]: in data set [1], the exposure producing myelosuppression was 120 µM·h.
